This is an account of results in paper PMC7024313, “Identification and Repurposing of Trisubstituted Harmine Derivatives as Novel Inhibitors of Mycobacterium tuberculosis Phosphoserine Phosphatase” (Molecules, 2020).

One assay deals with T1, SerB2 (M. tuberculosis phosphoserine phosphatase) (Mycobacterium tuberculosis, UniProt O53289). In words: malachite green phosphatase assay, slope replot fitted to Hill-type model. Type of assay: biochemical. The source says: malachite green phosphatase assay, slope replot fitted to Hill-type model on SerB2 (M. tuberculosis phosphoserine phosphatase)
T1 sequence (O53289 whole entry): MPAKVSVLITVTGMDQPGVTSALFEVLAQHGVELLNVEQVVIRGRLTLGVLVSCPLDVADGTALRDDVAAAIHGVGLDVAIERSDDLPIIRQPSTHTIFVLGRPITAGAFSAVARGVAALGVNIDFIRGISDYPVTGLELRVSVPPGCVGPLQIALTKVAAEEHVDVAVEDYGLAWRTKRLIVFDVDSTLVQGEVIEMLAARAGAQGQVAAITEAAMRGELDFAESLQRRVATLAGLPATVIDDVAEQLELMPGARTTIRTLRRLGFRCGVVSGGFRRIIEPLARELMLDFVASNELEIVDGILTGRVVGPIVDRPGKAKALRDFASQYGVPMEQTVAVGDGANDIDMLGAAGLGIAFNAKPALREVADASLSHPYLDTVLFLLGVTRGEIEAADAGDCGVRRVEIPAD
For the compound `Cc1c2c(cc[n+]1CCC(C)C)c1ccc(OCCC(C)C)cc1n2CCC(C)C` [compound 88, 88], the affinity corresponds to a Ki of 18.3 ± 2.3 µM.

In the case of `Cc1c2c(cc[n+]1CCc1ccccc1)c1ccc(OCC3CCCCC3)cc1n2CC1CCCCC1` [compound 91, 91], the Ki – broadly, a measure of affinity in units of concentration, obtained from inhibition or displacement – came to 3.27 ± 0.12 µM.

In turn, `Cc1c2c(cc[n+]1Cc1ccc3ccccc3c1)c1ccc(OCc3ccccc3)cc1n2Cc1ccccc1` [compound 95, 95] returned an inhibition constant (Ki) of 6.66 ± 0.39 µM.

With `Cc1c2c(cc[n+]1CCC1CCCCC1)c1ccc(OCC3CCCCC3)cc1n2CC1CCCCC1` [compound 124, 7-(cyclohexylmethoxy)-9-(cyclohexylmethyl)-1-methyl-2-(2-cyclohexylethyl)-β -carboline-2-ium bromide], the inhibition constant (Ki) amounted to 1.75 ± 0.11 µM.

The next assay addresses T1, SerB2 (M. tuberculosis phosphoserine phosphatase). Briefly: malachite green phosphatase assay. Type of assay: biochemical. The source says: malachite green phosphatase assay on SerB2 (M. tuberculosis phosphoserine phosphatase)
In the case of `Cc1c2c(cc[n+]1CCC(C)C)c1ccc(OCC3CCCCC3)cc1n2CC1CCCCC1` [compound 90, 90], the inhibition (usually the percentage by which the read-out fell short of the control) at 10 µM was 16.5 ± 13.3%.

Consider `Cc1c2c(cc[n+]1CCc1ccccc1)c1ccc(OCc3ccccc3)cc1n2Cc1ccccc1` [compound 94, 94], for which the inhibition at 10 µM amounted to 15.6 ± 4.3%.
